Experimental data from patent publication US20190375786A1, “STABLE PEPTIDES AND METHODS OF USE THEREOF” (Fred Hutchinson Cancer Research Center, priority 2016, published 2019).
Entries after “also recorded” stand apart in the source; their conditions may differ.

What was measured:
[1] = Circular dichroism in neutral, SDS and acidic buffers; format: physicochemical
Experimental: CD spectra were measured with a Jasco J-720W spectropolarimeter using a 1.0 mm path length cell. Lyophilized peptide samples were resuspended in ultra pure water. CD runs were carried out by diluting peptides in 20 mM phosphate buffer saline (pH 7.4), 20 mM phosphate buffer saline (pH 7.4) supplemented with 1% sodium dodecyl sulfate (SDS), or phosphate buffer saline at pH 4. Peptides were diluted to 15-25 μM in concentration. Data are shown in terms of total molar ellipticity [θ]; (deg cm^2 dmol^−1).

[2] = Combined resistance grouping of hitchin peptides (FIG. 27, from Table 2 data); format: physicochemical; details: FIG. 27 grouping of hitchin peptides
Experimental: As shown by the data in TABLE 2, the tested peptides of the present disclosure show a range of resistance to proteases, reduction, and high temperature. The peptides were classified as high, medium, or low for each condition. […] For example, after a peptide is treated at 100° C., if the HPLC peak of the peptide is mostly absent as compared to HPLC peak of the peptide not treated at 100° C., then the peptide is classified as low or having low resistance to 100° C. After a peptide is treated with reducing conditions, if there is no or very minimal HPLC peak that overlaps with the HPLC peak of the peptide not treated with reducing conditions, then the peptide is classified as low or having low resistance to reducing conditions.
The peptides with the highest resistance data were further analyzed. […] The six peptides that were further tested were peptides comprising the sequences of SEQ ID NO: 27, SEQ ID NO: 24, SEQ ID NO: 6, SEQ ID NO: 10, SEQ ID NO: 12, and SEQ ID NO: 57, which were all hitchins. […] FIG. 27C is a sequence analysis of SEQ ID NO: 27, SEQ ID NO: 24, SEQ ID NO: 6, SEQ ID NO: 10, SEQ ID NO: 12, and SEQ ID NO: 57 from FIG. 27B. FIG. 27C identifies which amino acids are present at each position in SEQ ID NO: 27, SEQ ID NO: 24, SEQ ID NO: 6, SEQ ID NO: 10, SEQ ID NO: 12, and SEQ ID NO: 57. For example, at position one, all peptide sequences comprise a G amino acid residue; at position two, all peptide sequences comprise an S amino acid residue; at position three, all peptide sequences comprise either G, Q, or V amino acid, or null; and at position four, all peptide sequences comprise V, R, or K amino acid, or null. […] SEQ ID NO: 167 and SEQ ID NO: 168 describe sequences of peptides that are particularly resistant to reduction, pepsin, 75° C., and 100° C., which would typically degrade peptides. […] Additionally, SEQ ID NO: 169 describes sequences of peptides that are also particularly resistant to trypsin.

trypsin = trypsin (Sus scrofa, UniProt P00761); test: Trypsin digestion resistance of soluble peptide, RP-HPLC; format: in vitro ADME, porcine; set-up: purchased Sigma Aldrich 6567; details: 50 U trypsin (500 U/ml), 30 min at room temperature, with or without 10 mM DTT; HPLC
trypsin, sequence (P00761 9-231): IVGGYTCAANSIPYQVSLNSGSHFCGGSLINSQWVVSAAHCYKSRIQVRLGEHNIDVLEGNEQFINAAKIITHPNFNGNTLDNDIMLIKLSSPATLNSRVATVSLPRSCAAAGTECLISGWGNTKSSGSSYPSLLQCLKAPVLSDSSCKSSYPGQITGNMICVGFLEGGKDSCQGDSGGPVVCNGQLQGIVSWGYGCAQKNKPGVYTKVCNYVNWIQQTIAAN
Procedure, shortened: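 Read-out was RP-HPLC (C-18, water/acetonitrile with 0.1% TFA, 5-45% over 10 min) of peptide left after trypsin treatment. Digest: 12.5 μg peptide, 500 U/ml porcine trypsin, PBS, 37.5° C for 30 min, stopped by soybean trypsin inhibitor; samples then reduced (10 mM DTT) or left non-reduced.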

pepsin [3] = molecular target: T1, pepsin (Sus scrofa, UniProt P00791); test: Stability in SPTD (simulated gastric fluid, pepsin, Tris and DTT), RP-HPLC; format: in vitro ADME; details: SGF pH 1.05 with 500 U/ml pepsin, 100 mM Tris, 10 mM DTT
T1 sequence (P00791 60-385): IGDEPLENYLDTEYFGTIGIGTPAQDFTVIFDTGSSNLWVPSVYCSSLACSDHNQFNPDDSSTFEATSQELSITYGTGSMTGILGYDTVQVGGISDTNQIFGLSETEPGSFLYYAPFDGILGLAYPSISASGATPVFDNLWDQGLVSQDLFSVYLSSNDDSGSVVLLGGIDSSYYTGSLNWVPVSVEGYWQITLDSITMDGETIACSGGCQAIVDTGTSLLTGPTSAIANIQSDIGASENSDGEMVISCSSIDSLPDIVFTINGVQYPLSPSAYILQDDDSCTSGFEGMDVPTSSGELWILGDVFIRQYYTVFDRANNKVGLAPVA
Experimental: (§1) Peptides were first suspended in 500 ul of ddH2O to a stock concentration of 2 mg/ml. Reactions were prepared by adding 12.5 ug of peptide from the stock solution to a 10 mM solution of DTT in PBS and allowed to incubate at room temperature for 30 minutes. Other reactions were prepared with 12.5 μg peptide with or without 500 U/ml pepsin in simulated gastric fluid (SGF; pH 1.05; […] sodium chloride in 0.7% (v/v) hydrochloric acid) and were incubated for 30 minutes at 37.5° C. Some reactions were quenched with a final concentration of 100 mM Tris base and 10 mM dithiothreitol (DTT). Some reactions were performed in all of the above components, including simulated gastric fluid, pepsin, Tris, and DTT (referred to as SPTD). Reversed phase HPLC (RP-HPLC) was run on samples using an Agilent 1260 HPLC equipped with a C-18 Poroshell 120B column. Sample were analyzed by a gradient method with a mobile phase of Solvent A (water with 0.1% TFA) and Solvent B (acetonitrile with 0.1% TFA). Solvent B was ramped up from 5%-45% of the mobile phase over a period of 10 minutes. Peptides were detected at an absorbance of 214 nm and 280 nm.

pepsin [4] = molecular target: T1, pepsin; test: Pepsin digestion resistance in simulated gastric fluid, RP-HPLC; format: in vitro ADME, porcine; set-up: purchased Sigma Aldrich P7012; details: HPLC
Procedure, shortened: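 Digestion resistance read by reversed-phase HPLC (C-18, 0.1% TFA, 5–45% acetonitrile over 10 min; 214/280 nm) after 12.5 μg peptide spent 30 min at 37.5 °C in pH 1.05 simulated gastric fluid, with or without 500 U/ml pepsin. Some samples quenched with Tris base and DTT.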

[5] = Stability in simulated gastric fluid (SGF, pH 1.05), RP-HPLC; format: physicochemical; details: HPLC vs non-reduced peptide
Experimental: as §1
This example illustrates peptide stability in biological conditions including in the presence of reducing agents, proteases, oxidative conditions, acidic conditions, and simulated gastric fluids. […] Various peptides were suspended in 500 μl of ddH2O at a stock concentration of 2 mg/ml. This was then diluted in accord with the reaction conditions to prevent adverse buffering effects. Reactions were prepared with 12.5 μg peptide dissolved in solution and, in some samples, additionally suspended in a 10 mM solution of DTT, simulated gastric fluid (pH 1.05; […] sodium chloride in 0.7% (v/v) hydrochloric acid), 500 U pepsin (5000 U/ml pepsin), 50 U trypsin (500 U/ml trypsin) with 1 mg/ml inhibitor in PBS, or a combination of any of these conditions. All protease reactions were incubated for 30 min at room temperature and then quenched. Pepsin reactions were quenched by adding Tris base to a final concentration of 0.075 M. Trypsin reactions were quenched by adding excess soybean trypsin inhibitor. RP-HPLC was then run on samples using an Agilent 1260 HPLC equipped with a C-18 Poroshell 120B column. Sample were analyzed by a gradient method with a mobile phase of Solvent A (water with 0.1% TFA) and Solvent B (acetonitrile with 0.1% TFA). Solvent B was ramped up from 5%-45% of the mobile phase over a period of 10 minutes.

[6] = Resistance to reduction by DTT, RP-HPLC; format: physicochemical; details: 10 mM DTT; HPLC vs non-reduced peptide
Procedure, shortened: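 Peptide (12.5 μg from a 2 mg/ml stock, or 0.015 mM final in PBS) was held 30 min at room temperature with or without 10 mM DTT. Reduced and non-reduced forms were compared by C-18 RP-HPLC using a 5–45% acetonitrile/0.1% TFA gradient over 10 min, with detection at 214 and 280 nm.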

| Sequence | secondary structure by CD in phosphate buffer saline at pH 4 ([1]; pH 4) | secondary structure by CD in phosphate buffer saline at pH 7.2 ([1]; pH 7.2) | secondary structure by CD in phosphate buffer saline at pH 7.2 with 1% SDS ([1]; pH 7.2, 1% sodium dodecyl sulfate) | combined resistance to reduction, pepsin and elevated temperatures such as 75° C. and 100° C. [2] | resistance to trypsin, Example 7 conditions (in words) (trypsin) | resistance in SPTD (SGF, pepsin, Tris, DTT) (in words) (pepsin [3]) | resistance to pepsin, Example 7 conditions (in words) (pepsin [4]; 500 U pepsin (5000 U/ml) in SGF, 30 min at room temperature, with or without DTT) | resistance to pepsin digestion (in words) (pepsin [4]; 500 U/ml pepsin (50 U per reaction) in SGF, 30 minutes at 37.5° C.) | stability in simulated gastric fluid / low pH (in words) [5] | resistance to reduction by DTT (in words) [6] |
| --- | --- | --- | --- | --- | --- | --- | --- | --- | --- | --- |
| GSVFINVKCRGSPECLPKCKEAIGKSAGKCMNGKCKCYP [SEQ ID NO: 37] | retained its secondary structure | retained its secondary structure | lost secondary structure | not highly resistant |  |  |  |  |  |  |
| GSGVPINVRCRGSRDCLDPCRRAGMRFGRCINSRCHCTP [SEQ ID NO: 31] |  |  |  |  | remained intact; also recorded: resistant | highly resistant | remained intact; also recorded: resistant | highly resistant | highly resistant; also recorded: remained intact; also recorded: intact and resistant | highly resistant; also recorded: remained intact; also recorded: intact and resistant |
